Molecules are shown by their SMILES. “And” between values parts separate entries of the source, which are not always exact repeats. Equal entries are not always repeated.

Data set [1] deals with T1, TLR7 (Homo sapiens, UniProt Q9NYK1).
T1 construct: expressed in transfected cells; host or cells: HEK293
T1 sequence (Q9NYK1 27-1049): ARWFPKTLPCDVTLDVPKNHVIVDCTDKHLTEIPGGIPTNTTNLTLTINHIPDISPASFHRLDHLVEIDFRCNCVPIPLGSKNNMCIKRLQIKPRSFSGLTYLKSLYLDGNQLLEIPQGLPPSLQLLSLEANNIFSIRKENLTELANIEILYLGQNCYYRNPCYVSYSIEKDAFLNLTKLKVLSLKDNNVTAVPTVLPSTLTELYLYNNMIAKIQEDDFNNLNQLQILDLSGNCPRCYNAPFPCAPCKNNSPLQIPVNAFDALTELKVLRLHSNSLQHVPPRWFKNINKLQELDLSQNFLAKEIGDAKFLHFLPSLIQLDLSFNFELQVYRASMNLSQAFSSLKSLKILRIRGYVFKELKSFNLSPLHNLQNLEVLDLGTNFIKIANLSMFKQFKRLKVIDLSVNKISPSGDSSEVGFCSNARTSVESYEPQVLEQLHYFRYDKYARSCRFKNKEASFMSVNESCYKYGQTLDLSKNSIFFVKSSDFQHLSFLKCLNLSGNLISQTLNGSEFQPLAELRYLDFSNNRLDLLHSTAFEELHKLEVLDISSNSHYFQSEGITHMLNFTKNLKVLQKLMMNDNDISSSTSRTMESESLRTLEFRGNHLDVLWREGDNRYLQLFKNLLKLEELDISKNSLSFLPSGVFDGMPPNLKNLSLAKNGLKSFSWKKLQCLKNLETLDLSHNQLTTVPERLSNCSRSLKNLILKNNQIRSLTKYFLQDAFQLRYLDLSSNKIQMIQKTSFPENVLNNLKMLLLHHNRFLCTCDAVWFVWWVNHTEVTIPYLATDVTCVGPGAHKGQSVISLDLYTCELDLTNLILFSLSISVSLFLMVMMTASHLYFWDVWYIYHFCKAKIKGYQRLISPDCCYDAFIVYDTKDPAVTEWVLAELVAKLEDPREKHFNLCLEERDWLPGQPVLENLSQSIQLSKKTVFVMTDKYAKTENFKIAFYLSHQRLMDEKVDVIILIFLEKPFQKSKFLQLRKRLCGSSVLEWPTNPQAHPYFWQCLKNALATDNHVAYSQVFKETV
The conditions noted are these: concentrations as low as; cited from earlier work.

The target in data set [2] is T2, TLR8 (Homo sapiens, UniProt Q9NR97).
T2 construct: expressed in transfected cells; host or cells: HEK293
T2 sequence (Q9NR97 27-1041): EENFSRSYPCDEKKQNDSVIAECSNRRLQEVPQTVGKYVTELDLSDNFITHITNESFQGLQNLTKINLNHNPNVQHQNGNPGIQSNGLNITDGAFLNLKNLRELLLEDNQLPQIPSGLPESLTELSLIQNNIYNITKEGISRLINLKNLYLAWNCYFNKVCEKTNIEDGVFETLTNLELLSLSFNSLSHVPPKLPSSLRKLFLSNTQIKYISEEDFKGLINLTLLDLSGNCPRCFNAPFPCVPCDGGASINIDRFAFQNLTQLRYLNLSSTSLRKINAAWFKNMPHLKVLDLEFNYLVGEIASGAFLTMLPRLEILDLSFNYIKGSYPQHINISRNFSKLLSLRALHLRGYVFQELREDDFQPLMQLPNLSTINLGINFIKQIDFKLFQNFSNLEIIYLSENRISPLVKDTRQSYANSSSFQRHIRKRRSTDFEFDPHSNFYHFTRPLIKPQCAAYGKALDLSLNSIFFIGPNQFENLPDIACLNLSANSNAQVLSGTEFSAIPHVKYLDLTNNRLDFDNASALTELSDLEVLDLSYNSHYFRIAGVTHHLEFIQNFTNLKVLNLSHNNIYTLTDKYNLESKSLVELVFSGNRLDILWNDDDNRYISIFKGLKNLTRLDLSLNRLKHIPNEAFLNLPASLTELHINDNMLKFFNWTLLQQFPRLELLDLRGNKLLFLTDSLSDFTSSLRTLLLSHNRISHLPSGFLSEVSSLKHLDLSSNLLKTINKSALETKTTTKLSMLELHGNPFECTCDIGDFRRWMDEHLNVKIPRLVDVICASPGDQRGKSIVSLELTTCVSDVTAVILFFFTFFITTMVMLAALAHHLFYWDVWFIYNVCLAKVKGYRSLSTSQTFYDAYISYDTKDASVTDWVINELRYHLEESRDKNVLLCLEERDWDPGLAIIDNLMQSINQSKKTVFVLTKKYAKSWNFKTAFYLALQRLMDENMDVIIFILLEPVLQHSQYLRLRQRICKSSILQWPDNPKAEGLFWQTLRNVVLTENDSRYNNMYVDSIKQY
The conditions noted are these: TLR8-transfected HEK293 cells, cited from earlier work.

Data set [3] has as its target T1, TLR7. The conditions noted are these: TLR7-transfected HEK293 cells, cited from earlier work.
Data set [4] concerns the target T2, TLR8. The conditions noted are these: even at high concentrations (>10 μg/ml); cited from earlier work.
Data set [5] has as its system 4T1-Luc2 breast cancer cells. The data set is described as follows: Survival after resection of orthotopic 4T1-Luc2 tumors with a loaded hydrogel implanted at the resection site. Format: in vivo, female BALB/cJ mice. The conditions noted are these: crosslinked hyaluronic acid hydrogel loaded with the agent placed in tumor resection site on day 10 post-tumor inoculation; extended local release; versus empty hydrogel. How it is done: The hydrogels for FIG. 1 were prepared according to the methods described for hydrogel 1 in Table 1. 120 μL of a hyaluronic acid solution (2.0% w/v GLYCOSIL) was pipetted into a mold. One mg of a p38 MAPK inhibitor (e.g., losmapimod (Selleckchem)) was dissolved in 10 μL DMSO, and this solution was added to the hyaluronic acid solution in the mold. Following mixing to create a homogeneous distribution of the payload, 30 μL of a PEG-diacrylate crosslinker solution (12.5% w/v EXTRALINK) was pipetted into the mold. The crosslinked hydrogel solidified in the mold over the course of a few minutes. Female BALB/cJ mice were inoculated orthotopically with 4T1-Luc2 breast cancer cells in their fourth mammary fat pad. On day 10 post-tumor inoculation, tumors (˜100 mm^3) were resected, and a hydrogel (e.g., a crosslinked hyaluronic acid hydrogel) loaded with a p38 MAPK inhibitor (e.g., losmapimod) was placed in the tumor resection site. Empty hydrogel was used as a negative control.
The hydrogels for FIG. 2 were prepared according to the methods described for hydrogel 1 in Table 1. 120 μL of a hyaluronic acid solution (2.0% w/v GLYCOSIL) was pipetted into a mold. Five hundred μg (40 μL) of an anti-IL-1β antibody (e.g., clone B122 (BioXCell)) was added to the hyaluronic acid solution in the mold. […]

For data set [6] the following is noted: cited from earlier work.

Regarding `CCCCNc1nc(N)c2nc(O)n(Cc3ccc(C(=O)NCC(=O)NCCCNCCCCNCCCN)cc3)c2n1` [CL307, N1-glycinyl[4-((6-amino-2-(butylamino)-8-hydroxy-9H-purin-9-yl)methyl)benzoyl] spermine], the “concentration inducing robust NF-κB activation” value on TLR7 [1] is 20 nM and 10 ng/ml.

Turning to `CCOC(=O)C1=Cc2ccc(-c3cccc(C#N)c3)cc2N=C(N)C1` [TL8-506], the “potency in inducing NF-κB activation relative to CL075” value on TLR8 [2] (more potent than CL075) is listed as around 25 ×. Also, the “potency in inducing NF-κB activation relative to R848” value at TLR8 [2] (more potent than R848) is given as around 50 ×. As to `CCCCNc1nc(N)c2nc(O)n(Cc3ccc(C(=O)NCC(=O)O)cc3)c2n1` [CL264], the “concentration inducing NF-κB activation” value at TLR7 [3] was 0.1 µM. Besides, at TLR7 [3] (relative to imiquimod), the “concentration triggering NF-κB activation, times less than imiquimod” value is 5-10 times. Further, the TLR8 stimulation result at TLR8 [4] is recorded as “does not stimulate TLR8”.

Take `Cc1c(F)cc(C(=O)NC2CC2)cc1-c1ccc(C(=O)NCC(C)(C)C)cn1` [losmapimod]: in data set [5], the “survival (Kaplan-Meier)” value is “Prolonged survival benefit”. Consider `CCOCc1nc2c(N)nc3ccccc3c2[nH]1` [CL097], for which, in data set [6], the water solubility is at least 20 mg/mL.

The record behind these values is US20210008048A1, “COMPOSITIONS AND METHODS FOR CANCER TREATMENT” (Dana-Farber Cancer Institute, Inc., priority 2018, published 2021).
